The record followed here is patent publication US20240293493A1, “COMPOSITION FOR ALLEVIATING, TREATING, OR PREVENTING MUSCULAR DISEASES, OR IMPROVING MUSCULAR FUNCTIONS, CONTAINING KOREAN MINT EXTRACT OR TILIANIN AS ACTIVE INGREDIENT” (AAT COSTECH CO., LTD., priority 2020, published 2024).

For test [1], the system named is atrogin-1. The test is described as follows: atrogin-1 mRNA expression in TNF-α-treated L6 myotubes (RT-PCR). Type of test: cell-based. To be noted: TNF-α treatment, 20 µM or 40 µM tilianin. How it is done:
(§1) L6 myoblasts (ATCC), which are muscle cells, were added to a 6-well plate with DMEM (Hyclone) containing 10% FBS (Hyclone) at 1×10^5 cells/mL. When the cell density reached about 80-85%, the medium remaining in the well was removed and differentiation into myotubes was induced by treating the cells with DMEM (Hyclone) containing 2% HS (Hyclone). The differentiation was performed for a total of 6 days while replacing the medium with a fresh one every 2 days. After the differentiation, […], which was dissolved in DMEM (Hyclone) containing 50 ng/ml tumor necrosis factor alpha (TNF-α; PeproTech, Rocky Hills, NJ, USA). 12 hours later, total RNA was isolated using a TRIzol reagent (Takara, Otsu, Japan). The isolated total RNA was quantified using NanoDrop 1000 (Thermo Fisher Scientific Inc., Waltham, MA, USA). cDNA was synthesized from 16 μL of the quantified RNAs using a reverse transcriptase premix (ELPIS-Biotech) and a PCR machine (Gene Amp PCR System 2700; Applied Biosystems, Foster City, CA, USA) under the condition of 42° C. for 55 minutes and 70° C. for 15 minutes. PCR was performed by repeating 30 cycles of 95° C. for 30 seconds, 60° C. for 1 minute and 72° C. for 1 minute using 1 μL of cDNA from 16 μL of the produced cDNA, specific primers described below (Bioneer, Daejeon, Korea) and a PCR premix (ELPIS-Biotech). […]

Test [2] relates to muscle atrophy-induced mice. Nature of the test: Muscular strength in mice with skin-stapler immobilization muscle atrophy. The class given is in vivo, mice (C57BL/6J). To be noted: tilianin 20 mg/kg orally every day, compared with muscle atrophy group. The procedure: (§2) 7-week-old male mice (C57BL/6J; DBL, Korea) were purchased as experimental animals. The breeding environment was maintained at a temperature of 23±2° C. and a relative humidity of 55±10%. Before the start of the experiment, a total of 20 mice were randomly divided into groups of 5 mice each. After a week of acclimation, anesthesia was induced by intraperitoneal injection of 325 mg/kg tribromoethanol (Sigma-Aldrich). After the anesthesia, the right hindlimb gastrocnemius muscle and the right sole of the mice in a muscle atrophy group and a sample administration group were stapled using a skin stapler (Unidus, Chungcheongbuk-do, Korea) to damage the muscle and keep the right hindlimb from moving. This state was maintained for a week. […]
After the end of the oral administration period, the muscular strength of the mice was measured using a muscular strength meter (Panlab, Barcelona, Spain). […]
(§3) After inducing muscle atrophy in the same manner as in Example 12-1, tilianin was orally administered every day at a concentration of 20 mg/kg. Then, muscular strength and muscle weight were measured in the same manner as in Example 12-2 and Example 12-3.

Test [3] concerns MuRF1. The test is described as follows: MuRF1 mRNA expression in TNF-α-treated L6 myotubes (RT-PCR). To be noted: TNF-α treatment, 20 µM or 40 µM tilianin. The class given is cell-based. How it is done: as §1
In test [4] the test system is mTOR. The test is described as follows: mTOR activity in L6 myotubes by mTOR sandwich ELISA kit. The class given is cell-based. To be noted: 20 μM or 40 μM tilianin, vs control group. How it is done: It is known that the activation of the mTOR protein by phosphorylation can induce muscle protein synthesis in muscle cells by the PI3K/Akt signaling pathway and can activate proteins involved in increase of muscle mass. Therefore, in order to investigate the activity of inducing muscle formation of Korean mint, the activity of mTOR was investigated using a mTOR sandwich ELISA kit (Cell Signaling Technology, Beverly, MA, USA).
L6 myoblasts (ATCC; Manassas, VA, USA) were seeded on a 6-well plate at 1×10^5 cells/well with Dulbecco's modified Eagle's medium (DMEM; Hyclone) containing 10% fetal bovine serum (FBS; Hyclone, Logan, UT, USA) and then cultured for 24 hours. […]
(Hyclone) containing 2% horse serum (HS; Hyclone). […] Proteins in the obtained cell lysate were quantified at a concentration of 1 mg/mL by Bradford assay (Bio-Rad Laboratories Inc., Hercules, CA, USA). […] 2 minutes later, the mTOR level in the myotubes treated with the extract of Korean mint leaf was measured by measuring absorbance at 450 nm. […] The difference between groups was analyzed through Duncan's multiple range test by one-way analysis of variance using the SPSS25.0 statistical package (SPSS Inc., Chicago, IL, USA). […]
mTOR activity was measured in the same manner as in Example 3 except that the extracts of the aerial part of Korean mint of Example 1-2 to Example 1-8 were treated at 80 μg/mL. […]
A general note: An ELISA detects its analyte on a solid surface through an enzyme-linked reagent.

Test [5] has as its system muscle atrophy-induced mice. The test is described as follows: Tibialis anterior muscle weight in muscle atrophy-induced mice. The class given is in vivo, mice (C57BL/6J). To be noted: tilianin 20 mg/kg orally every day, compared with muscle atrophy group. The procedure:
as §2, §3

As for `COc1ccc(-c2cc(=O)c3c(O)cc(O[C@@H]4O[C@H](CO)[C@@H](O)[C@H](O)[C@H]4O)cc3o2)cc1` [tilianin], the “mRNA of atrogin-1 (FIG. 4)” value in test [1] is given as “decreased”. Further, the “increase of muscular strength” value in test [2] stood at 30.3%. Further, the “mRNA of MuRF1 (FIG. 4)” value in test [3] is recorded as “decreased”. Besides, the “mTOR activity (FIG. 3)” value in test [4] is listed as “significantly increased”. Moreover, the “increase of muscle weight” value in test [5] is 15.2%.
